Source: patent US7112318B2, “Non-invasive diagnostic imaging technology for mitochondria dysfunction using radiolabeled lipophilic salts” (The Johns Hopkins University, priority 2002, dated 2006)
“And” between values parts separate entries of the source, which are not always exact repeats. Equal entries are not always repeated. Where two headings read alike, the source gives them in different places.

Key:
[1] = mouse, in vivo, iv, 60 min
Description: (§1) Three to five mice were used for the biodistribution study of each tracer. Nonanesthetized animals were injected i.v. with tracer solution (FBnTP or FPTP, TPMP 25 μCi; MIBI 40 μCi; TPP 2 μCi, all in a volume of 0.2 mL saline) then killed by neck dislocation at 60 min after injection. The organs and tissues of interest were removed and counted by a radioactivity counter along with standards (1:1000) (LKB Wallac, 1282 Compugamma CS).

myocardium [2] = details: cited from earlier work; for myocardial extraction under baseline / normal flow: baseline or normal flow; for myocardial extraction at increased flow: five-fold increases in flow rate / high flow rates
[3] = Biodistribution in mice 60 min after i.v. injection; details: 60 min after iv. injection
Description: as §1

FCA-induced inflammation = test: Accumulation in FCA-induced inflammation tissue and healthy muscle; type: in vivo; details: rats, 3 days after administration of FCA
Description: 0.1 ml of nitrosomethyl urea (NUM) was introduced i.p in female rats (150 g). When tumor reached an approximate size of 1 to 1.5 cm, FCA was injected (0.15 ml) to the hind limb footpad. Uptake assays were carried out 3 days thereafter. F-18-FBnTP (0.25 mCi) was injected via tail vein. Sixty minutes later tumor, inflamed tissue and healthy muscle tissue of the opposite limb (control) were collected on ice, weighed and counted in a gamma counter together with standards.
The accumulation of the novel F-18-phosphonium cations, F-18-FBnTP and F-18-fluoropropyl triphenyl phosphonium (F-18-FPTP) in comparison with F-18-FDG in FCA-induced inflammation and healthy tissue is presented in Table 2. Induction of inflammation and activity counting were carried out as described above.

myocardium [4] = test: C-11-TPMP uptake kinetics in the myocardium (dog PET, LAD occlusion); type: in vivo
Description: We have examined the performance of C-11-triphenyl phosphonium cation (TPMP) for assessing regional myocardial flow in dog using PET (Kraus, 1994).
Methods: Four mCi of C-11-TPMP were introduced i.v., and dynamic images of increasing duration (15 sec to 20 min) were acquired over a total time of 85 min. Images were acquired on the GE 4096+ PET scanner (15 slices, 6.5 mm slice thickness). Images were reconstructed using backprojection, and corrected for attenuation. A detailed description of methods appears in Kraus, 1994.
To investigate the relationship between myocardial blood flow and C-11-TPMP uptake in the heart, the LAD was occluded and the C-11-TPMP accumulation in tissue samples compared to microsphere determined regional myocardial blood flow. A significant correlation (r=0.93, p<0.01) was found at 5 min after LAD occlusion (FIG. 12). The non-infracted/infracted myocardium ratio was 12.1±2.4.

prostate carcinoma = test: Tumor selectivity in orthotopic model of prostate carcinoma; type: in vivo; details: nude mice, normalized to muscle
Description: Methods: 2×10^6 cells were injected, under anesthesia, into the prostate epithelial tissue of nude mice. When tumor reached an approximate size of 5 mm, uptake assays were performed as described above. Tumor selectivity of F-18-FBnTP and F-18-FDG was compared (3 mice in each group)

| SMILES | biodistribution, blood [3] [% ID/g] | biodistribution, brain [3] [% ID/g] | biodistribution, heart [3] [% ID/g] | biodistribution, kidney [3] [% ID/g] | biodistribution, liver [3] [% ID/g] | biodistribution, lung [3] [% ID/g] | biodistribution, muscle [3] [% ID/g] | biodistribution, spleen [3] [% ID/g] | Inf/Control (FCA-induced inflammation) | myocardial extraction under baseline / normal flow (myocardium [2]) | myocardial extraction at increased flow (myocardium [2]) | accumulation, Control (healthy muscle) (FCA-induced inflammation) | accumulation, Inflammation (FCA-induced inflammation) | also measured |
| --- | --- | --- | --- | --- | --- | --- | --- | --- | --- | --- | --- | --- | --- | --- |
| c1ccc([P+](c2ccccc2)(c2ccccc2)c2ccccc2)cc1 [[^3H]TPP, tetraphenyl phosphonium] | – | – | – | – | – | – | – | – | – | – | – | – | – | biodistribution, blood [1]: 0.09 ± 0.02 % ID/g; biodistribution, brain [1]: 0.06 0.02 % ID/g; biodistribution, heart [1]: 20.7 ± 1.92 % ID/g; biodistribution, kidney [1]: 4.37 ± 0.66 % ID/g; biodistribution, liver [1]: 6.12 ± 1.08 % ID/g; biodistribution, lung [1]: 2.81 ± 0.41 % ID/g; biodistribution, muscle [1]: 2.22 ± 0.41 % ID/g; biodistribution, spleen [1]: 1.93 ± 0.47 % ID/g |
| [201Tl] [Thallium 201] | – | – | – | – | – | – | – | – | – | about 80% | about 60% | – | – | – |
| [18F]CCC[P+](c1ccccc1)(c1ccccc1)c1ccccc1 [[18F]FPTP, [^18F]3-fluoropropyltriphenyl-phosphonium ion] | 0.01 ± 0.00 | 0.03 ± 0.00 | 9.86 ± 0.82 | 5.74 ± 0.54 | 4.22 ± 1.79 | 2.02 ± 0.34 | 2.06 ± 0.53 | 1.23 ± 0.26 | 0.25 ± 0.04 | – | – | 0.29 ± 0.06 % ID/g tissue | 0.07 ± 0.01 % ID/g tissue | accumulation, Blood (FCA-induced inflammation): *0.037 ± 0.01 % ID/g tissue |
| [11CH3][P+](c1ccccc1)(c1ccccc1)c1ccccc1 [[11C]TPMP, C-11-triphenylmethyl phosphonium] | 0.03 ± 0.00 | – | 13.4 ± 0.95 | 3.79 ± 0.83 | 5.68 ± 0.60 | 2.20 ± 0.21 | 2.49 ± 0.35 | 1.43 ± 0.18 | – | – | – | – | – | extraction fraction in the heart (myocardium [4]; baseline conditions, flow=69 ml/min/100 g): 91%; decrease of the extraction fraction (myocardium [4]; five-fold increase in flow by adenosine): 39% |

Continued, in another order:

| biodistribution, blood [3] [% ID/g] | biodistribution, brain [3] [% ID/g] | biodistribution, heart [3] [% ID/g] | biodistribution, kidney [3] [% ID/g] | biodistribution, liver [3] [% ID/g] | biodistribution, lung [3] [% ID/g] | biodistribution, muscle [3] [% ID/g] | biodistribution, spleen [3] [% ID/g] | Inf/Control (FCA-induced inflammation) | SMILES | myocardial extraction under baseline / normal flow (myocardium [2]) | myocardial extraction at increased flow (myocardium [2]) | accumulation, Control (healthy muscle) (FCA-induced inflammation) | accumulation, Inflammation (FCA-induced inflammation) | also measured |
| --- | --- | --- | --- | --- | --- | --- | --- | --- | --- | --- | --- | --- | --- | --- |
| 0.26 ± 0.05 | 0.08 ± 0.04 | 5.08 ± 0.25 | 12.6 ± 2.57 | 5.55 ± 1.08 | 0.98 ± 0.19 | 1.56 ± 0.31 | 1.27 ± 0.33 | – | [99Tc].[C-]#[N+]CC(C)(C)OC.[C-]#[N+]CC(C)(C)OC.[C-]#[N+]CC(C)(C)OC.[C-]#[N+]CC(C)(C)OC.[C-]#[N+]CC(C)(C)OC.[C-]#[N+]CC(C)(C)OC [[^99mTc]MIBI, Tc-99m-sestamibii, reference compound] | about 60% | 40% | – | – | – |
| – | – | – | – | – | – | – | – | 2.12 ± 0.73 and 1.20 ± 0.29 | OC[C@H]1OC(O)[C@H]([18F])[C@@H](O)[C@@H]1O (stereo partly drawn) [[^18F]FDG, reference compound] | – | – | 0.68 ± 0.14 % ID/g tissue and 1.05 ± 0.35 % ID/g tissue | 1.42 ± 0.53 % ID/g tissue and 1.20 ± 0.16 % ID/g tissue | uptake ratio of malignant-to-normal prostate tissue (prostate carcinoma): 1.25 |
